The results in this text go back to PMC8041284, “Tunable Methacrylamides for Covalent Ligand Directed Release Chemistry” (Journal of the American Chemical Society, 2021).

The structures appear in SMILES notation.

Broadly, the inhibition is the drop in the measured response relative to a control, in per cent.

The target in this experiment is BTK (Homo sapiens, UniProt Q06187). The experiment in a line: biochemical. As to conditions: read-out: BTK inhibition (%), 0.75 uM BTK, […] probe 3l, 15 min preincubation.
BTK, sequence (Q06187 402-655 limits assumed): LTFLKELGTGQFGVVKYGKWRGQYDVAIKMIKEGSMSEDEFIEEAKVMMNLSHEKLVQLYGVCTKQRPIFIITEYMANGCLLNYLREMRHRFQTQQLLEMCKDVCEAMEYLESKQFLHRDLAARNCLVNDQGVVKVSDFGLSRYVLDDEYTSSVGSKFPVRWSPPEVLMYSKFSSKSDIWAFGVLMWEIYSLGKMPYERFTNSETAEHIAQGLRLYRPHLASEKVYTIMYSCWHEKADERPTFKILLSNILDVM
As for `O=C(O)c1cc(C(=O)O)c2c(n1)C(=O)C(=O)c1cc(C(=O)O)[nH]c1-2` [PCM-0216638], the inhibition at 10 µM is -0.8%.

Consider `CN1CCN(CCCNc2ncc(Cl)c(-c3cc4c(C(=O)NC5CC5)cccc4s3)n2)CC1` [PCM-0215458], for which the inhibition at 10 µM was -10.8%.

Consider `Cc1cc(C(C)Nc2ccccc2)c2nc(N3CCOCC3)cc(=O)n2c1` (centres unmarked) [PCM-0095022], for which the inhibition at 10 µM came to 10.3%.

With `CC(C)NCC(O)c1ccc(NS(C)(=O)=O)cc1` (centres unmarked) [PCM-0065402], the inhibition at 10 µM is -16.3%.

As to `CC(C)(C)OC(=O)N[C@@H]1CCCC[C@H]1N` [PCM-0215045], the inhibition at 10 µM was -24.1%.

`CC(=O)[C@H]1CC[C@H]2[C@@H]3CCC4=CC(=O)CC[C@]4(C)[C@H]3CC[C@]12C` [PCM-0064761]: the inhibition at 10 µM is -7.8%.

For `C[C@@H]([C@H](C)O)[C@H](N)C(=O)O` [PCM-0216300], the inhibition at 10 µM was -12.4%.

For the compound `Cc1ccc(C(C)C)cc2c(C)ccc1-2` [PCM-0215089], the inhibition at 10 µM was determined as 10.1%.

With `COc1ccc(-c2cc(=O)c3c(O)cc(O)cc3o2)cc1O` [PCM-0094859], the inhibition at 10 µM was determined as 57.6%.

As to `O=C(O)C1=C[C@@H](O)[C@@H](O)[C@H](O)C1` [PCM-0094809], the inhibition at 10 µM is 10.1%.

Consider `Cc1ccc(C(=O)c2cc(O)c(O)c([N+](=O)[O-])c2)cc1` [PCM-0095576], for which the inhibition at 10 µM was determined as 38.1%.

For the compound `Nc1ccn([C@H]2CC[C@@H](CO)O2)c(=O)n1` [PCM-0065156], the inhibition at 10 µM was -22.6%.

Regarding `Cc1ccc(Cl)c(Nc2ccccc2C(=O)O)c1Cl` [PCM-0214800], the inhibition at 10 µM was found to be 9.7%.

For `CCCCCCCCCCCCCCCC(=O)O[C@@H]1[C@@H](O)[C@@H](O)[C@@H]([C@H](NC(=O)[C@@H]2C[C@@H](CCC)CN2C)[C@H](C)Cl)O[C@@H]1SC` [PCM-0215167], the inhibition at 10 µM worked out at 73.2%.

Take `Cc1ccc([C@@H]2O[C@H](CO)[C@@H](O)[C@H](O)[C@H]2O)cc1Cc1ccc(-c2ccc(F)cc2)s1` [PCM-0095519]: the inhibition at 10 µM was 7.6%.

`O=C(C[S+]([O-])Cc1ccco1)NC/C=C\COc1cc(CN2CCCCC2)ccn1` (centres unmarked) [PCM-0095231]: the inhibition at 10 µM was -9%.

As for `COc1cc2c(c(OC)c1OC)-c1c(cc3c(c1OC)OCO3)C[C@H](C)[C@](C)(O)[C@H]2OC(=O)c1ccccc1` [PCM-0216060], the inhibition at 10 µM amounted to 3.9%.

For the compound `N#Cc1cccc(-c2c[nH]c3ncnc(N4CCOCC4)c23)c1` [PCM-0215613], the inhibition at 10 µM is -8.3%.

As for `CC(C(=O)O)c1cccc(C(=O)c2ccccc2)c1` (centres unmarked) [PCM-0065500], the inhibition at 10 µM is -17.9%.

For the compound `Nc1nc2cc(-c3ccc4ncc(C(=O)N5CCOCC5)n4c3)ccc2o1` [PCM-0215857], the inhibition at 10 µM stood at 21.4%.

In the case of `CCc1cnn2c(NCc3ccc[n+]([O-])c3)cc(N3CCCC[C@H]3CCO)nc12` [PCM-0095529], the inhibition at 10 µM is -7.6%.

In the case of `COc1cc(NC(=O)c2ccccn2)ccc1Cl` [PCM-0095344], the inhibition at 10 µM was determined as 15.6%.

Turning to `CC[C@H]1OC(=O)[C@H](C)[C@@H](O[C@H]2C[C@@](C)(OC)[C@@H](O)[C@H](C)O2)[C@H](C)[C@@H](O[C@@H]2O[C@H](C)C[C@H](N(C)C)[C@H]2O)[C@](C)(O)C[C@@H](C)CN[C@H](C)[C@@H](O)[C@]1(C)O` [PCM-0215099], the inhibition at 10 µM was -13.2%.

For the compound `Cn1c(=O)cc(N2CCC[C@@H](N)C2)n(Cc2cc(F)ccc2C#N)c1=O` [PCM-0095818], the inhibition at 10 µM came out at 15.4%.

As for `CN[C@@H]1[C@@H](O[C@H]2O[C@H](CO)[C@@H](N)[C@H](O)[C@H]2O)O[C@H]2C[C@@H](N)[C@@H](O[C@H]3[C@H](O)[C@@H](O)[C@H](N)C[C@@H]3N)O[C@@H]2[C@@H]1O` [PCM-0215222], the inhibition at 10 µM stood at 8.5%.

For `CC(C)(Oc1ccc(C2CC2(Cl)Cl)cc1)C(=O)O` (centres unmarked) [PCM-0064433], the inhibition at 10 µM is -14%.

For the compound `C[C@H](CCC(=O)O)[C@H]1CC[C@H]2[C@@H]3[C@@H](O)C[C@@H]4C[C@H](O)CC[C@]4(C)[C@H]3CC[C@]12C` [PCM-0214641], the inhibition at 10 µM is 24.1%.

Turning to `Cc1cncc(CN2CCC(=C3c4ccc(Cl)cc4CCc4cccnc43)CC2)c1` [PCM-0095542], the inhibition at 10 µM is -7.6%.

Take `NC(=O)c1ccc(I)c([N+](=O)[O-])c1` [PCM-0095053]: the inhibition at 10 µM was -1.4%.

`Oc1ncnc2[nH]ncc12` [PCM-0064482]: the inhibition at 10 µM was -5.5%.

In the case of `CCNC(=O)c1[nH]nc(-c2cc(Cl)c(O)cc2O)c1-c1ccc(OC)cc1` [PCM-0215298], the inhibition at 10 µM was 21.6%.

On to `COc1cc2nc(N(C)CCCNC(=O)C3CCCO3)nc(N)c2cc1OC` (centres unmarked) [PCM-0064661], for which the inhibition at 10 µM worked out at 1.6%.

With `O=C1C(c2[nH]c3ccc(S(=O)(=O)O)cc3c2O)=Nc2ccc(S(=O)(=O)O)cc21` [PCM-0216597], the inhibition at 10 µM worked out at 23.9%.

Consider `C[C@H]1[C@H](OC(=O)CCC(=O)O)O[C@@H]2O[C@@]3(C)CC[C@H]4[C@H](C)CC[C@@H]1[C@@]24OO3` [PCM-0214643], for which the inhibition at 10 µM was 6.2%.

For `O=S(=O)(O)c1cc(O)ccc1O` [PCM-0086281], the inhibition at 10 µM was 3.9%.

In the case of `CSCCNc1nc(SCCC(F)(F)F)nc2c1ncn2[C@@H]1O[C@H](COP(=O)(O)OP(=O)(O)C(Cl)(Cl)P(=O)(O)O)[C@@H](O)[C@H]1O` [PCM-0215886], the inhibition at 10 µM was -50.2%.

Take `COC1CCC(N2C(=O)CNc3ncc(-c4ccc(C(C)(C)O)nc4)nc32)CC1` (centres unmarked) [PCM-0215601]: the inhibition at 10 µM was found to be 15.9%.

`CS(=O)(=O)Nc1ccc([N+](=O)[O-])cc1OC1CCCCC1` [PCM-0215740]: the inhibition at 10 µM amounted to 3.4%.

On to `Nc1nc(NCCc2ccc(O)cc2)nc2nc(-c3ccco3)nn12` [PCM-0215654], for which the inhibition at 10 µM is -4.6%.

For `O=C(c1ccc(Cl)cc1Cl)n1nnc2ccccc21` [PCM-0215673], the inhibition at 10 µM was found to be 17%.

As to `NC(=O)CC[C@@H](N)C(=O)O` [PCM-0095186], the inhibition at 10 µM was determined as 6%.

On to `CC1(C)O[C@H]2CC(=O)OC[C@]23[C@H]2CC[C@@]4(C)[C@H](c5ccoc5)OC(=O)[C@H]5O[C@]54[C@]2(C)C(=O)C[C@@H]13` [PCM-0214679], for which the inhibition at 10 µM was -3.9%.

In the case of `Cc1[nH]c(/C=C2\C(=O)Nc3ccc(S(=O)(=O)Cc4c(Cl)cccc4Cl)cc32)c(C)c1C(=O)N1CCC[C@@H]1CN1CCCC1` [PCM-0095018], the inhibition at 10 µM was found to be 35.2%.

As for `CCn1c(-c2nonc2N)nc2c(C#CC(C)(C)O)ncc(OC[C@H]3CCCNC3)c21` [PCM-0094908], the inhibition at 10 µM was -4.1%.

For `N#CC(=C(N)Sc1ccc(N)cc1)c1ccccc1C(F)(F)F` [PCM-0095011], the inhibition at 10 µM was -28.3%.

For the compound `Cc1c(-c2ccc(O)cc2)n(Cc2ccc(OCCN3CCCCCC3)cc2)c2ccc(O)cc12` [PCM-0095308], the inhibition at 10 µM stood at 84%.

With `Oc1cc(O)c2c(c1)O[C@H](c1ccc(O)c(O)c1)[C@@H](O)C2` [PCM-0064631], the inhibition at 10 µM amounted to 37.4%.

Consider `Nc1ncnc2c1ncn2[C@@H]1O[C@H](CO)C[C@H]1O` [PCM-0101885], for which the inhibition at 10 µM came out at 42%.

As to `C#C[C@]1(O)CC[C@H]2[C@@H]3CCC4=CC(=O)CC[C@@H]4[C@H]3C(=C)C[C@@]21CC` [PCM-0214842], the inhibition at 10 µM amounted to 3.1%.

For the compound `CC1(C)CCC[C@](C)([C@H]2CC[C@]3(C)[C@@H]2[C@H](O)C[C@@H]2[C@@]4(C)CC[C@H](O)C(C)(C)[C@@H]4[C@H](O)C[C@]23C)O1` [PCM-0215005], the inhibition at 10 µM was -2.8%.
